{"source": "patent US9422238B2", "about": "“ICMT inhibitors” (National University of Singapore, priority 2012, dated 2016)", "key": {"[1]": {"test_system": "PC3 cells", "experiment": "Apoptosis by Annexin V-FITC / propidium iodide staining", "format": "cell-based, human", "details": "PC3, 48 h; for % Apoptotic / % Necrotic / % Normal: one analysis only; for induction of apoptosis: one determination, preliminary", "protocol": "The Annexing® V-FITC Apoptosis Detection Kit (BD Biosciences, Franklin Lakes, N.J.) was used PC3 cells were seeded at 65 000 cells per well in 6-well plates with DMEM (high glucose, supplemented with 10% FBS) as media. Plates were incubated (24 h, 37° C., 5% CO2) for cells to attach and then treated with test compound (prepared in same media but with 5% FBS) for 48 h. Final volume of DMSO per well was 0.05% v/v. After the specified time, the supernatant in the well was collected, the cell pellet was trypsinized, combined with the supernatant and pelleted by centrifugation (150 g, 5 min). The pellet was rinsed twice with cold 1×PBS and suspended in the proprietary binding buffer (1×) to give a concentration of 10^6 cells per mL. An aliquot (100 μL) of the suspension containing 10^5 cells was transferred to the FACS tube (5 mL) to which was added Annexin® V-FITC solution (5 μL) and propidium iodide (PI) solution (5 μL). The solution was gently vortexed, incubated in the dark for 15 min at room temperature (25° C.), after which was added 400 μL of the binding buffer (1×). The sample was analyzed immediately or no later than 1 h, in which case it should be kept in ice and protected from light. Analysis was carried out on a FCS500 flow cytometer (Beckman Coulter, CA) using the FlowJo® software (http: http://www.flowjo.com/). Controls comprised untreated cells, cells exposed to Annexin® V-FITC only, and cells exposed to PI only. Each test compound was evaluated at 4 concentrations. Only 1 determination was made per concentration."}, "[2]": {"test_system": "PC3 cells", "experiment": "Immunofluorescence analysis of LC3 aggregation", "format": "cell-based, human", "details": "PC3, 48 h", "protocol": "Cover slips were placed into the base of each well in a 24-well plate. PC3 cells were seeded at 10 000 cells/mL per well in media (DMEM Hi-glucose, 10% FBS, 50 μg/mL penicillin, 50 μg/mL streptomycin) and incubated for 24 h. After this time, cells were attached as a layer onto the exposed face of the cover slip. The media was carefully removed from the well without disrupting the cell layer on the cover slip. Test compound in DMEM (high glucose, 5% FBS) was added and incubated for 24 h or 48 h. DMSO concentration was kept at 0.05% per well, including control wells. At the end of the incubation period, media was removed, wells were washed thrice with PBS, followed by addition of chilled PBST (200 μL) per well for 10 minutes to permeabilize the cells. Cells were then fixed with 4% paraformaldehyde (300 μL), incubated for 15 minutes, and washed with cold PBS (3 times) to remove the fixing solution. To the cell layer fixed on the cover slip in the well was added 100 μL of anti-LC3 in PBST (1:1000). The plates were kept at 4° C. overnight after which each well was washed 3× with cold PBS. Rhodamine Red-X® secondary antibody (Jackson Immunoresearch Laboratories, West Grove, Pa.) was added, incubated (2 h, 25° C.) and removed by washing with PBS (3 times). The cover slips were carefully removed from the wells and mounted onto glass slides and sealed with nail polish. […]"}, "[3]": {"test_system": "Balb/c mice", "protocol": "Animals were given free access to water and standard feed. […] The test compound was administered intraperitoneally using a 23G gauge needle to the animal in a volume of vehicle that was tagged to the body weight, namely 0.2 mL for 20 g animal and so on. The vehicle was formulated from ethanol, PEG 400 (Sigma Aldrich) and 5% dextrose (Sigma Aldrich) in the ratio 1:6:3. The test compound was first dissolved in ethanol, PEG400 was added and the solution was vortexed, followed by 5% dextrose and further vortexing. The solutions were freshly prepared before administration."}, "[4]": {"test_system": "HepG2, MIA PACA II, MDA-MB-231 and PC3 cells", "experiment": "Cell viability on panel of 4 malignant cell lines", "format": "cell-based", "details": "Homo sapiens, MDA-MB-231, PC3, read-out: IC50 values, range over the malignant cell lines", "protocol": "Determinations were made in duplicates or triplicates.\nCell viability was determined from the expression:\nHuman hepatocellular carcinoma HepG2 and human pancreatic cancer MIA PACA II cells were obtained from ATCC (Rockville, Md.). They were grown in DMEM (high glucose, Invitrogen) supplemented with 10% FBS, 50 μg/mL penicillin and 50 μg/mL streptomycin, 37° C., 5% CO2 until they reached 80-90% confluency, after which they were subcultured. Passage numbers were kept within 7-14 passages for both cell types."}, "[5]": {"target": "Icmt (Homo sapiens, UniProt O60725)", "sequence (O60725 whole entry, species assumed)": "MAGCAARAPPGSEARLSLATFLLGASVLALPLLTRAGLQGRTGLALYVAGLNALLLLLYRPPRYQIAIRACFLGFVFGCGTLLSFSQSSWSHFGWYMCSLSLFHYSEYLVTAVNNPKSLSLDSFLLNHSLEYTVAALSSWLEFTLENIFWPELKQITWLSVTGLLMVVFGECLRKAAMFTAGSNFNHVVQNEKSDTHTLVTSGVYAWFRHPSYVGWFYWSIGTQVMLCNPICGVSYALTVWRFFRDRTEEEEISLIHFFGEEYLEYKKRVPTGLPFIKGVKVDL", "details": "background, cited from earlier work"}, "[6]": {"details": "female, Balb/c, mouse, in vivo, ip, 24 h"}}, "note": "Like-named read-outs stand apart in the source and are kept apart here."}
{"smiles": "CCCCCCCCn1cc(CN(CC)CC)c2cc(-c3cnc(N)nc3)ccc21", "note": "[Compound 8-12, 5-(3-Diethylaminomethyl-1-octyl-1H-indol-5-yl)-pyrimidin-2-ylamine]", "values": [{"measurement": "% Apoptotic", "setting": "[1]; 0.4 μM", "value": 1.45, "unit": "%"}, {"measurement": "% Necrotic", "setting": "[1]; 0.4 μM", "value": 4.95, "unit": "%"}, {"measurement": "% Normal", "setting": "[1]; 0.4 μM", "value": 93.6, "unit": "%"}, {"measurement": "% Apoptotic", "setting": "[1]; 0.8 μM", "value": 1.31, "unit": "%"}, {"measurement": "% Necrotic", "setting": "[1]; 0.8 μM", "value": 6.85, "unit": "%"}, {"measurement": "% Normal", "setting": "[1]; 0.8 μM", "value": 91.8, "unit": "%"}, {"measurement": "% Apoptotic", "setting": "[1]; 1.0 μM", "value": 0.71, "unit": "%"}, {"measurement": "% Necrotic", "setting": "[1]; 1.0 μM", "value": 8.84, "unit": "%"}, {"measurement": "% Normal", "setting": "[1]; 1.0 μM", "value": 90.4, "unit": "%"}, {"measurement": "% Apoptotic", "setting": "[1]; 1.2 μM", "value": 0.93, "unit": "%"}, {"measurement": "% Necrotic", "setting": "[1]; 1.2 μM", "value": 7.43, "unit": "%"}, {"measurement": "% Normal", "setting": "[1]; 1.2 μM", "value": 91.6, "unit": "%"}, {"measurement": "induction of apoptosis", "setting": "[1]", "value": "Induction of apoptosis was also not observed"}, {"measurement": "LC3 aggregation (immunofluorescence)", "setting": "[2]", "value": "punctate LC3-positive (red) vacuoles were observed at 2.5 and 5 μM"}, {"measurement": "tolerability", "setting": "[3]; [6]", "value": "well tolerated at 10, 20 and 50 mg/kg"}, {"measurement": "apparent maximal tolerated dose", "setting": "[3]; mice, IP", "value": 100, "unit": "mg/kg"}, {"measurement": "IC50", "setting": "[4]", "value": "1600 to 2600", "unit": "nM"}]}
{"smiles": "CCCCCCCCn1cc(CC(N)=O)c2cc(-c3cccc(C)c3)ccc21", "note": "[Cysmethynil, 2-[5-(3-methylphenyl)-1-octyl-1H-indolo-3-yl]acetamide, reference compound]", "values": [{"measurement": "% Apoptotic", "setting": "[1]; 12.5 μM", "value": 0.92, "unit": "%"}, {"measurement": "% Necrotic", "setting": "[1]; 12.5 μM", "value": 6.94, "unit": "%"}, {"measurement": "% Normal", "setting": "[1]; 12.5 μM", "value": 92.1, "unit": "%"}, {"measurement": "% Apoptotic", "setting": "[1]; 17.5 μM", "value": 1.96, "unit": "%"}, {"measurement": "% Necrotic", "setting": "[1]; 17.5 μM", "value": 8.33, "unit": "%"}, {"measurement": "% Normal", "setting": "[1]; 17.5 μM", "value": 89.7, "unit": "%"}, {"measurement": "% Apoptotic", "setting": "[1]; 20.0 μM", "value": 1.23, "unit": "%"}, {"measurement": "% Necrotic", "setting": "[1]; 20.0 μM", "value": 8.06, "unit": "%"}, {"measurement": "% Normal", "setting": "[1]; 20.0 μM", "value": 90.7, "unit": "%"}, {"measurement": "% Apoptotic", "setting": "[1]; 22.5 μM", "value": 1.21, "unit": "%"}, {"measurement": "% Normal", "setting": "[1]; 22.5 μM", "value": 89.6, "unit": "%"}, {"measurement": "induction of apoptosis", "setting": "[1]", "value": "not found to induce apoptosis"}, {"measurement": "maximal tolerated dose", "setting": "[3]; [6]", "value": "exceeded 100 kg/kg"}, {"measurement": "tolerability", "setting": "[3]; mouse, in vivo, ip", "value": "well tolerated at all doses"}, {"measurement": "Ki", "setting": "[5]; read-out: Ki of initial reversible complex with the enzyme", "value": 2390, "unit": "nM"}, {"measurement": "Ki", "setting": "[5]; time dependent inhibition, read-out: overall dissociation constant of EI* complex", "value": 110, "unit": "nM"}]}
